Test in all cases: In vitro antibacterial activity, two-fold agar-plate dilution method
Holding throughout (type): cell-based
Holding throughout (settings): HI-agar, 37° C., 20 hours, read-out: minimal inhibitory concentration (MIC)

In test [1] the test system is Staphylococcus aureus 209P JC-1. Here is the method:
(§1) In vitro antibacterial activity was determined by the two-fold agar-plate dilution method as described below.
(§2) One loopful of an overnight culture of each test strain in Trypticase-soy broth (10^8 viable cells per ml.) was streaked on heart infusion agar (HI-agar) containing graded concentrations of test compounds, and minimal inhibitory concentration (MIC) was expressed in terms of μg/ml. after incubation at 37° C. for 20 hours.

Another test has as its system Proteus vulgaris 2. Here is the method: as §1, §2
The subject of the next test is Escherichia coli 324. As to the method:
as §1, §2

The next test has as its system Klebsiella aerogenes 417. As to the method:
as §1, §2

The next test relates to Proteus mirabilis 525. Here is the method: as §1, §2

SMILES strings stand for the structures. ≈ marks a conversion by molar mass, not a printed value. Structures can show the parent of a compound that is named as a salt.

Turning to `C#CCON=C(C(=O)NC1C(=O)N2C(C(=O)O)=C(CSc3nnnn3CC(=O)O)CSC12)c1csc(N)n1` (stereo not drawn) [Test Compound (3), 7-[2-(2-Propynyloxyimino)-2-(2-amino-1,3-thiazol-4-yl)acetamido]-3-(1-carboxymethyl-1H-tetrazol-5-yl)thiomethyl-3-cephem-4-carboxylic acid (syn isomer)], the MIC was 12.5 µg/mL (≈ 21.6 µM) in test [1] and 0.025 µg/mL (≈ 0.0431 µM) in the test on Proteus vulgaris 2.
Turning to `CON=C(C(=O)NC1C(=O)N2C(C(=O)O)=C(CSc3nnnn3CC(=O)O)CSC12)c1csnn1` (stereo not drawn) [Test Compound (4), 7-[2-Methoxyimino-2-(1,2,3-thiadiazol-4-yl)acetamido]-3-(1-carboxymethyl-1H-tetrazol-5-yl)thiomethyl-3-cephem-4-carboxylic acid (syn isomer)], the MIC stood at 0.2 µg/mL (≈ 0.369 µM) with Escherichia coli 324, 0.39 µg/mL (≈ 0.72 µM) in the test with Klebsiella aerogenes 417 and 0.2 µg/mL (≈ 0.369 µM) in the test on Proteus mirabilis 525.
Take `CCCON=C(C(=O)NC1C(=O)N2C(C(=O)O)=C(CSc3nnnn3CC(=O)O)CSC12)c1csc(N)n1` (stereo not drawn) [Test Compound (1), 7-[2-n-Propoxyimino-2-(2-amino-1,3-thiazol-4-yl)acetamido]-3-(1-carboxymethyl-1H-tetrazol-5-yl)thiomethyl-3-cephem-4-carboxylic acid (syn isomer)]: the MIC in test [1] amounted to 12.5 µg/mL (≈ 21.4 µM); in the test with Proteus vulgaris 2 it was 0.39 µg/mL (≈ 0.668 µM).
For `C=CCON=C(C(=O)NC1C(=O)N2C(C(=O)O)=C(CSc3nnnn3CC(=O)O)CSC12)c1csc(N)n1` (stereo not drawn) [Test Compound (2), 7-[2-Allyloxyimino-2-(2-amino-1,3-thiazol-4-yl)acetamido]-3-(1-carboxymethyl-1H-tetrazol-5-yl)thiomethyl-3-cephem-4-carboxylic acid hydrochloride (syn isomer)], in that order: 12.5 µg/mL and 0.78 µg/mL.
